In patent publication US20020137929A1, “1 - (3-heterocyclylphenyl) isothiourea, -isourea, -guanidine and -amidine herbicidal agents” (Intellectual Property Department, BASF Aktiengesellschaft, priority 1998, published 2002):

Assays:
CASOB (Sicklepod) = assay: Postemergence herbicidal evaluation; assay type: in vivo, Cassia obtusifolia; settings: for CASOB herbicidal rating / herbicidal rating CASOB: postemergence
In short: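 Visual 0-9 injury score (stand, vigor, malformation, size, chlorosis, appearance vs untreated) taken four to five weeks post-spray, averaged across repeat tests. Test plants about two weeks old; foliar spray of acetone/water (1:1) with 0.5% surfactant delivering ~0.0156-0.500 kg active/ha.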

[1] = system: GLXMAW (Soybean, Williams); assay: Preemergence herbicidal evaluation; assay type: in vivo, Glycine max, (L.) Merr. cv Williams; settings: rated 4-5 weeks after treatment; for GLXMAW rating: preemergence, 0-9 scale
In short: (§1)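 Seeds were mixed with potting soil and planted on about one inch of soil, then sprayed with test compound in aqueous acetone at about 0.0156 to 0.500 kg per hectare. Plants grew under standard greenhouse care and were visually rated 0-9 against untreated controls 4-5 weeks post-treatment.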

ORYSAT (Rice, Tebonnet) = assay: Preemergence herbicidal evaluation; assay type: in vivo, Oryza sativa, (L.) Tebonnet; settings: rated 4-5 weeks after treatment; for ORYSAT rating: preemergence, 0-9 scale
In short: as §1

[2] = system: TRZAWR (Wheat, Winter, cv Riband); assay: Preemergence herbicidal evaluation; assay type: in vivo, Triticum aestivum; settings: rated 4-5 weeks after treatment; for TRZAWR rating: preemergence, 0-9 scale
In short: as §1

[3] = system: SAGPY (Arrowhead (Pygmaea)); assay: Preemergence weed control under flooded paddy conditions; assay type: in vivo, Sagittaria pygmaea; settings: rated 3-4 weeks after treatment
In short: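 Flooded-pot preemergence screen with silt loam and seeds in the upper 0.5 cm. Dose about 0.0313 to 0.500 kg/ha, delivered into flood water; visual 0-9 score after 3 to 4 weeks.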

CCOC(=O)CN1C(=O)C(CC(=O)OCCF)SC1=Nc1cc(-n2c(=O)cc(C(F)(F)F)n(C)c2=O)c(F)cc1Cl (stereo not shown) [Compound 82, 2-{{2-Chloro-5-[3,6-dihydro-3-methyl-2,6-dioxo-4-(trifluoromethyl)-1(2H)-pyrimidinyl]-4-fluoro-phenyl}imino}-4-oxo-3,5-thiazolidinediacetic acid, 3-ethyl 2-fluoroethyl ester]
CASOB herbicidal rating (CASOB (Sicklepod); rate 0.0158 kg/ha): 9.0
CASOB herbicidal rating (CASOB (Sicklepod); rate 0.0315 kg/ha): 9.0
CASOB herbicidal rating (CASOB (Sicklepod); rate 0.0630 kg/ha): 9.0
GLXMAW rating ([1]; 0.0156 kg/ha): 0.0
GLXMAW rating ([1]; 0.0313 kg/ha): 0.0
GLXMAW rating ([1]; 0.0625 kg/ha): 0.0
GLXMAW rating ([1]; 0.1250 kg/ha): 0.0
GLXMAW rating ([1]; 0.2500 kg/ha): 5.0
ORYSAT rating (ORYSAT (Rice, Tebonnet); 0.0156 kg/ha): 0.0
ORYSAT rating (ORYSAT (Rice, Tebonnet); 0.0313 kg/ha): 0.0
ORYSAT rating (ORYSAT (Rice, Tebonnet); 0.0625 kg/ha): 0.0
ORYSAT rating (ORYSAT (Rice, Tebonnet); 0.1250 kg/ha): 0.0
ORYSAT rating (ORYSAT (Rice, Tebonnet); 0.2500 kg/ha): 0.0
TRZAWR rating ([2]; 0.0156 kg/ha): 0.0
TRZAWR rating ([2]; 0.0313 kg/ha): 0.0
TRZAWR rating ([2]; 0.0625 kg/ha): 0.0
TRZAWR rating ([2]; 0.1250 kg/ha): 0.0
TRZAWR rating ([2]; 0.2500 kg/ha): 0.0
SAGPY herbicidal effect rating ([3]; 0.0313 kg/ha): 4.0
SAGPY herbicidal effect rating ([3]; 0.0625 kg/ha): 4.0
SAGPY herbicidal effect rating ([3]; 0.1250 kg/ha): 4.0
SAGPY herbicidal effect rating ([3]; 0.2500 kg/ha): 7.0

CN1C(=O)C(CC(=O)NO)SC1=Nc1cc(-n2c(=O)cc(C(F)(F)F)n(C)c2=O)c(F)cc1Cl (stereo not shown) [Compound 162, 2-{{2-Chloro-5-[3,6-dihydro-3-methyl-2,6-dioxo-4-(trifluoromethyl)-1(2H)-pyrimidinyl]-4-fluorophenyl}imino}-3-methyl-4-oxo-5-thiazolidineacetohydroxamic acid]
herbicidal rating CASOB (CASOB (Sicklepod); rate 0.0156 kg/ha): 0.0
herbicidal rating CASOB (CASOB (Sicklepod); rate 0.0313 kg/ha): 0.0
herbicidal rating CASOB (CASOB (Sicklepod); rate 0.0625 kg/ha): 2.0
Preemergence herbicidal rating GLXMAW ([1]; 0.0156 kg/ha): 2.0
Preemergence herbicidal rating GLXMAW ([1]; 0.0313 kg/ha): 2.0
Preemergence herbicidal rating GLXMAW ([1]; 0.0625 kg/ha): 2.0
Preemergence herbicidal rating GLXMAW ([1]; 0.1250 kg/ha): 5.0
Preemergence herbicidal rating GLXMAW ([1]; 0.2500 kg/ha): 9.0
Preemergence herbicidal rating ORYSAT (ORYSAT (Rice, Tebonnet); 0.0156 kg/ha): 2.0
Preemergence herbicidal rating ORYSAT (ORYSAT (Rice, Tebonnet); 0.0313 kg/ha): 3.0
Preemergence herbicidal rating ORYSAT (ORYSAT (Rice, Tebonnet); 0.0625 kg/ha): 5.0
Preemergence herbicidal rating ORYSAT (ORYSAT (Rice, Tebonnet); 0.1250 kg/ha): 6.0
Preemergence herbicidal rating ORYSAT (ORYSAT (Rice, Tebonnet); 0.2500 kg/ha): 8.0
Preemergence herbicidal rating TRZAWR ([2]; 0.0156 kg/ha): 0.0
Preemergence herbicidal rating TRZAWR ([2]; 0.0313 kg/ha): 3.0
Preemergence herbicidal rating TRZAWR ([2]; 0.0625 kg/ha): 7.0
Preemergence herbicidal rating TRZAWR ([2]; 0.1250 kg/ha): 7.0
Preemergence herbicidal rating TRZAWR ([2]; 0.2500 kg/ha): 9.0
herbicidal effect rating, SAGPY ([3]; 0.0313 kg/ha): 0.0
herbicidal effect rating, SAGPY ([3]; 0.0625 kg/ha): 3.0
herbicidal effect rating, SAGPY ([3]; 0.1250 kg/ha): 3.0
herbicidal effect rating, SAGPY ([3]; 0.2500 kg/ha): 3.0

CCOC(=O)CN1CCSC1=Nc1cc(-n2nc(C)n(C(F)F)c2=O)c(F)cc1Cl [Compound 36]
Postemergence herbicidal rating CASOB (CASOB (Sicklepod); Rate 0.0158 kg/ha): 0.0
Postemergence herbicidal rating CASOB (CASOB (Sicklepod); Rate 0.0315 kg/ha): 0.0
Postemergence herbicidal rating CASOB (CASOB (Sicklepod); Rate 0.0630 kg/ha): 0.0
Preemergence herbicidal rating GLXMAW ([1]; rate 0.0625 kg/ha): 0.0
Preemergence herbicidal rating GLXMAW ([1]; rate 0.1250 kg/ha): 0.0
Preemergence herbicidal rating GLXMAW ([1]; rate 0.2500 kg/ha): 0.0
Preemergence herbicidal rating ORYSAT (ORYSAT (Rice, Tebonnet); rate 0.0625 kg/ha): 0.0
Preemergence herbicidal rating ORYSAT (ORYSAT (Rice, Tebonnet); rate 0.1250 kg/ha): 0.0
Preemergence herbicidal rating ORYSAT (ORYSAT (Rice, Tebonnet); rate 0.2500 kg/ha): 4.0
Preemergence herbicidal rating TRZAWR ([2]; rate 0.0625 kg/ha): 0.0
Preemergence herbicidal rating TRZAWR ([2]; rate 0.1250 kg/ha): 1.0
Preemergence herbicidal rating TRZAWR ([2]; rate 0.2500 kg/ha): 0.0
Herbicidal rating SAGPY ([3]; 0.0313 kg/ha): 0.0
Herbicidal rating SAGPY ([3]; 0.0625 kg/ha): 0.0
Herbicidal rating SAGPY ([3]; 0.1250 kg/ha): 3.0
Herbicidal rating SAGPY ([3]; 0.2500 kg/ha): 9.0

C=CCOC(=O)CN1C(=O)CSC1=Nc1cc(-n2c(=O)cc(C(F)(F)F)n(C)c2=O)c(F)cc1Cl [Compound 106, Allyl 2-{{2-chloro-5-[3,6-dihydro-3-methyl-2,6-dioxo-4-(trifluoromethyl)-1(2H)-pyrimidinyl]-4-fluorophenyl}imino}-4-oxo-3-thiazolidineacetate]
herbicidal rating CASOB (CASOB (Sicklepod); rate 0.0158 kg/ha): 1.0
herbicidal rating CASOB (CASOB (Sicklepod); rate 0.0315 kg/ha): 1.0
herbicidal rating CASOB (CASOB (Sicklepod); rate 0.0630 kg/ha): 3.0
GLXMAW rating ([1]; 0.0313 kg/ha): 1.5
GLXMAW rating ([1]; 0.0625 kg/ha): 2.0
GLXMAW rating ([1]; 0.1250 kg/ha): 3.5
GLXMAW rating ([1]; 0.2500 kg/ha): 5.0
Preemergence herbicidal rating GLXMAW ([1]; rate 0.0156 kg/ha): 1.0
ORYSAT rating (ORYSAT (Rice, Tebonnet); 0.0313 kg/ha): 1.0
ORYSAT rating (ORYSAT (Rice, Tebonnet); 0.0625 kg/ha): 2.0
ORYSAT rating (ORYSAT (Rice, Tebonnet); 0.1250 kg/ha): 2.5
ORYSAT rating (ORYSAT (Rice, Tebonnet); 0.2500 kg/ha): 5.0
Preemergence herbicidal rating ORYSAT (ORYSAT (Rice, Tebonnet); rate 0.0156 kg/ha): 1.5
TRZAWR rating ([2]; 0.0313 kg/ha): 0.0
TRZAWR rating ([2]; 0.0625 kg/ha): 2.0
TRZAWR rating ([2]; 0.1250 kg/ha): 3.0
TRZAWR rating ([2]; 0.2500 kg/ha): 5.0
Preemergence herbicidal rating TRZAWR ([2]; rate 0.0156 kg/ha): 0.0
SAGPY herbicidal effect rating ([3]; 0.0313 kg/ha): 3.0
SAGPY herbicidal effect rating ([3]; 0.0625 kg/ha): 4.0
SAGPY herbicidal effect rating ([3]; 0.1250 kg/ha): 5.0
SAGPY herbicidal effect rating ([3]; 0.2500 kg/ha): 7.0
